Literature values, collected in PubChem BioAssay AID1259409 (Chemical Carcinogenesis Research Information System (CCRIS), 2018).

Tested on: rodent chemically induced tumor inhibition, incidence and multiplicity
Assay: CCRIS tumor inhibitor studies
Details: Route [Inhibitor]: ORAL, Promoter: NONE USED

CC1=C(CC(=O)O)c2cc(F)ccc2/C1=C\c1ccc(S(C)=O)cc1 (stereo unspecified)
tumour outcome (control, treated, inhibition, significance) (Carcinogen: 1,2-DIMETHYLHYDRAZINE HYDROCHLORIDE, 306-37-6, Dose [Inhibitor]: 5 MG/KG BW IN DRINKING WATER ADMINISTERED CONCURRENTLY WITH CARCINOGEN FOR 24 WK (STUDY DURATION: 24 WK), Species: MOUSE, Strain/Sex: BALB/FEMALE, Target Tissue: Type of Lesion: COLON: MICROADENOMA, Dose [Carcinogen]: 25 MG/KG BW IN 0.4% EDTA AND 0.9% NORMAL SALINE 1/WK FOR 24 WK): 35/38 (92%), 18/38 (47%), 49%, not calculated | tumour outcome (control, treated, inhibition, significance) (Carcinogen: 1,2-DIMETHYLHYDRAZINE HYDROCHLORIDE, 306-37-6, Dose [Inhibitor]: 5 MG/KG BW IN DRINKING WATER BEGINNING 10 D POST LAST CARCINOGEN DOSE AND CONTINUING FOR 78 D (STUDY DURATION: 28 WK), Species: MOUSE, Strain/Sex: BALB/FEMALE, Target Tissue: Type of Lesion: COLON: MICROADENOMA, Dose [Carcinogen]: 25 MG/KG BW IN 0.4% EDTA AND 0.9% NORMAL SALINE 1/WK FOR 17 WK): 15/18 (83%), 13/18 (72%), 13%, not calculated | tumour outcome (control, treated, inhibition, significance) (Carcinogen: 1-METHYL-1-NITROSOUREA, 684-93-5, Dose [Inhibitor]: 0, 0.06% IN A PURIFIED HIGH-FAT (24.6%) DIET FOR 37 WK BEGINNING 1 WK POST CARCINOGEN DOSE (STUDY DURATION:38 WK), Species: RAT, Strain/Sex: SPRAGUE-DAWLEY/FEMALE, Target Tissue: Type of Lesion: MAMMARY GLAND: CARCINOMA, Dose [Carcinogen]: 12.5 MG/KG BW ONCE): 30%, 9%, 70%, p<0.05 | tumour outcome (control, treated, inhibition, significance) (Carcinogen: 1-METHYL-1-NITROSOUREA, 684-93-5, Dose [Inhibitor]: 0, 0.06% IN DIET FOR DURATION OF STUDY BEGINNING 7 D POST CARCINOGEN DOSE (STUDY DURATION: 24 WK), Species: RAT, Strain/Sex: SPRAGUE-DAWLEY/FEMALE, Target Tissue: Type of Lesion: MAMMARY GLAND: ADENOCARCINOMA, Dose [Carcinogen]: 50 MG/KG ONCE): 93%, 87%, 6%, not significant | tumour outcome (control, treated, inhibition, significance) (Carcinogen: 4-(METHYLNITROSAMINO)-1-(3-PYRIDYL)-1-BUTANONE, 64091-91-4, Dose [Inhibitor]: 0, 0.13 G/KG DIET (EFFECTIVE DOSE 0.95 UMOL/D) BEGINNING 2 WK PRIOR TO CARCINOGEN TREATMENT AND CONTINUING FOR DURATION, Species: MOUSE, Strain/Sex: STRAIN-A/FEMALE, Target Tissue: Type of Lesion: LUNG: TUMORS, Dose [Carcinogen]: 9.0-9.2 MG/MOUSE (TOTAL DOSE) IN DRINKING WATER ADMINISTERED OVER 7 WK): 28/28 (100%), 23/25 (92%), 8%, not significant | tumour outcome (control, treated, inhibition, significance) (Carcinogen: 4-(METHYLNITROSAMINO)-1-(3-PYRIDYL)-1-BUTANONE, 64091-91-4, Dose [Inhibitor]: 0, 15 MG/KG BW IN DIET FOR DURATION OF STUDY BEGINNING 2 WK PRIOR TO CARCINOGEN TREATMENT (STUDY DURATION: 25 WK), Species: MOUSE, Strain/Sex: STRAIN-A/FEMALE, Target Tissue: Type of Lesion: LUNG: TUMOR, Dose [Carcinogen]: 9.1 MG/MOUSE (TOTAL DOSE) ADMINISTERED IN DRINKING WATER OVER 7 WK): 23/24 (96%), 25/25 (100%), -4%, not significant | outcome (Carcinogen: 4-(METHYLNITROSAMINO)-1-(3-PYRIDYL)-1-BUTANONE, 64091-91-4, Dose [Inhibitor]: 0, 123 MG/KG DIET FOR 2 WK BEGINNING 2 WK PRIOR TO CARCINOGEN TREATMENT (STUDY DURATION: 18 WK), Species: MOUSE, Strain/Sex: STRAIN-A/FEMALE, Target Tissue: Type of Lesion: LUNG: TUMOR, Dose [Carcinogen]: 2 MG IN 0.5 ML 0.9% SALINE ONCE): 25/25 (100%), 20/20 (100%), o%, not significant | outcome (Carcinogen: 4-(METHYLNITROSAMINO)-1-(3-PYRIDYL)-1-BUTANONE, 64091-91-4, Dose [Inhibitor]: 0, 123 MG/KG DIET FOR 18 WK BEGINNING 2 WK PRIOR TO CARCINOGEN TREATMENT (STUDY DURATION: 18 WK), Species: MOUSE, Strain/Sex: STRAIN-A/FEMALE, Target Tissue: Type of Lesion: LUNG: TUMOR, Dose [Carcinogen]: 2 MG IN 0.5 ML 0.9% SALINE ONCE): 25/25 (100%), 24/24 (100%), o%, not significant | outcome (Carcinogen: 4-(METHYLNITROSAMINO)-1-(3-PYRIDYL)-1-BUTANONE, 64091-91-4, Dose [Inhibitor]: 0, 123 MG/KG DIET FOR 25 WK BEGINNING 2 WK PRIOR TO CARCINOGEN TREATMENT (STUDY DURATION: 25 WK), Species: MOUSE, Strain/Sex: STRAIN-A/FEMALE, Target Tissue: Type of Lesion: LUNG: TUMOR, Dose [Carcinogen]: 62.4 UG/ML IN DRINKING WATER FOR 7 WK FOR A CUMULATIVE DOSE OF 9.1 MG/MOUSE): 25/25 (100%), 24/24 (100%), o%, not significant | tumour outcome (control, treated, inhibition, significance) (Carcinogen: 4-(METHYLNITROSAMINO)-1-(3-PYRIDYL)-1-BUTANONE, 64091-91-4, Dose [Inhibitor]: 0, 123 MG/KG IN DIET FOR 9 WK BEGINNING 2 WK PRIOR TO CARCINOGEN TREATMENT (STUDY DURATION: 25 WK), Species: MOUSE, Strain/Sex: STRAIN-A/FEMALE, Target Tissue: Type of Lesion: FORESTOMACH: TUMOR, Dose [Carcinogen]: 9.1 MG IN DRINKING WATER FOR 7 WK): 7/25 (28%), 2/25 (8%), 71%, not significant | tumour outcome (control, treated, inhibition, significance) (Carcinogen: 4-(METHYLNITROSAMINO)-1-(3-PYRIDYL)-1-BUTANONE, 64091-91-4, Dose [Inhibitor]: 0, 123 MG/KG IN DIET FOR 16 WK BEGINNING POST CARCINOGEN TREATMENT (STUDY DURATION: 25 WK), Species: MOUSE, Strain/Sex: STRAIN-A/FEMALE, Target Tissue: Type of Lesion: FORESTOMACH: TUMOR, Dose [Carcinogen]: 9.1 MG IN DRINKING WATER FOR 7 WK): 7/25 (28%), 3/22 (14%), 50%, not significant | tumour outcome (control, treated, inhibition, significance) (Carcinogen: 4-(METHYLNITROSAMINO)-1-(3-PYRIDYL)-1-BUTANONE, 64091-91-8, Dose [Inhibitor]: 0, 123 MG/KG IN DIET FOR 25 WK BEGINNING 2 WK PRIOR TO CARCINOGEN TREATMENT (STUDY DURATION: 25 WK), Species: MOUSE, Strain/Sex: STRAIN-A/FEMALE, Target Tissue: Type of Lesion: FORESTOMACH: TUMOR, Dose [Carcinogen]: 9.1 MG IN DRINKING WATER FOR 7 WK): 7/25 (28%), 1/25 (4%), 86%, p<0.05 | tumour outcome (control, treated, inhibition, significance) (Carcinogen: AZOXYMETHANE, 25843-45-2, Dose [Inhibitor]: 0, 160 PPM IN DIET FOR DURATION OF STUDY BEGINNING 2 WK PRIOR TO CARCINOGEN TREATMENT (STUDY DURATION: 54 WK), Species: RAT, Strain/Sex: F344/MALE, Target Tissue: Type of Lesion: COLON: ADENOCARCINOMA, Dose [Carcinogen]: 15 MG/KG BW 1/WK FOR 2 WK): 81%, 47%, 42%, p<0.01 | tumour outcome (control, treated, inhibition, significance) (Carcinogen: AZOXYMETHANE, 25843-45-2, Dose [Inhibitor]: 0, 320 PPM IN DIET FOR 38 WK BEGINNING 14 WK POST CARCINOGEN TREATMENT (STUDY DURATION: 54 WK), Species: RAT, Strain/Sex: F344/MALE, Target Tissue: Type of Lesion: COLON: ADENOCARCINOMA, Dose [Carcinogen]: 15 MG/KG BW 1/WK FOR 2 WK): 81%, 26%, 68%, p<0.0001 | tumour outcome (control, treated, inhibition, significance) (Carcinogen: AZOXYMETHANE, 25843-45-2, Dose [Inhibitor]: 0, 320 PPM IN DIET FOR DURATION OF STUDY BEGINNING 2 WK PRIOR TO CARCINOGEN TREATMENT (STUDY DURATION: 54 WK), Species: RAT, Strain/Sex: F344/MALE, Target Tissue: Type of Lesion: COLON: ADENOCARCINOMA, Dose [Carcinogen]: 15 MG/KG BW 1/WK FOR 2 WK): 81%, 36%, 56%, p<0.0001 | tumour outcome (control, treated, inhibition, significance) (Carcinogen: AZOXYMETHANE, 25843-45-2, Dose [Inhibitor]: 0, 400 PPM IN DIET FOR 29 WK BEGINNING 1 WK POST CARCINOGEN TREATMENT (STUDY DURATION: 32 WK), Species: RAT, Strain/Sex: F344/MALE, Target Tissue: Type of Lesion: COLON: ADENOMA, Dose [Carcinogen]: 15 MG/KG BW 1/WK FOR 2 WK): 77%, 30%, 61%, p<0.05 | tumour outcome (control, treated, inhibition, significance) (Carcinogen: AZOXYMETHANE, 25843-45-2, Dose [Inhibitor]: 0, 400 PPM IN DIET FOR 29 WK BEGINNING 1 WK POST CARCINOGEN TREATMENT (STUDY DURATION: 32 WK), Species: RAT, Strain/Sex: F344/MALE, Target Tissue: Type of Lesion: COLON: CARCINOMA, Dose [Carcinogen]: 15 MG/KG BW 1/WK FOR 2 WK): 53%, 13%, 75%, p<0.05 | tumour outcome (control, treated, inhibition, significance) (Carcinogen: N-BUTYL-N-(4-HYDROXYBUTYL)NITROSAMINE, 3817-11-6, Dose [Inhibitor]: 0, 200 MG/KG DIET FOR 24 WK BEGINNING 1 WK PRIOR TO CARCINOGEN TREATMENT (STUDY DURATION: 24 WK), Species: MOUSE, Strain/Sex: BDF/MALE, Target Tissue: Type of Lesion: URINARY BLADDER: TRANSITIONAL CELL CARCINOMA, Dose [Carcinogen]: 7.5 MG 1/WK FOR 8 WK): 20/74 (27%), 6/73 (8%), 70%, p<0.01 | tumour outcome (control, treated, inhibition, significance) (Carcinogen: N-BUTYL-N-(4-HYDROXYBUTYL)NITROSAMINE, 3817-11-6, Dose [Inhibitor]: 0, 400 MG/KG DIET FOR 24 WK BEGINNING 1 WK PRIOR TO CARCINOGEN TREATMENT (STUDY DURATION: 24 WK), Species: MOUSE, Strain/Sex: BDF/MALE, Target Tissue: Type of Lesion: URINARY BLADDER: TRANSITIONAL CELL CARCINOMA, Dose [Carcinogen]: 7.5 MG 1/WK FOR 8 WK): 20/74 (27%), 2/75 (3%), 89%, p<0.01 | tumour outcome (control, treated, inhibition, significance) (Carcinogen: N-NITROSOMETHYLBENZYLAMINE, 937-40-6, Dose [Inhibitor]: 0, 125 PPM IN DIET FOR DURATION OF STUDY BEGINNING 1 WK POST CARCINOGEN TREATMENT (STUDY DURATION: 25 WK), Species: RAT, Strain/Sex: F344/MALE, Target Tissue: Type of Lesion: ESOPHAGUS: TUMOR, Dose [Carcinogen]: 1 MG/KG 3/WK FOR 5 WK): 15/15 (100%), 14/15 (93%), 7%, not significant | tumour outcome (control, treated, inhibition, significance) (Carcinogen: N-NITROSOMETHYLBENZYLAMINE, 937-40-6, Dose [Inhibitor]: 0, 125 PPM IN DIET FOR DURATION OF STUDY BEGINNING 2 WK PRIOR TO CARCINOGEN TREATMENT (STUDY DURATION: 25 WK), Species: RAT, Strain/Sex: F344/MALE, Target Tissue: Type of Lesion: ESOPHAGUS: TUMOR, Dose [Carcinogen]: 1 MG/KG 3/WK FOR 5 WK): 15/15 (100%), 14/15 (93%), 7%, not significant
